# Test results taken from patent publication US11066414B2, “Cot modulators and methods of use thereof” (Gilead Sciences, Inc., priority 2015, dated 2021).
# Read-outs that look alike come from different tables or passages of the source.
# Legend:
# TNFα = assay: Cot Monocyte TNFα Cell Based Assay
# Human Cot = Human Cot (Homo sapiens (Human), UniProt P41279); assay: High Throughput Cot Biochemical Assay
# [1] = Homo sapiens, Monocyte, read-out: EC50 TNF, LPS-stimulated human monocytes, TNFα
# [2] = IC50 HTRF, Cot HTRF (TR-FRET) biochemical assay
# [3] = Homo sapiens, Monocyte, read-out: EC50 TNF, LPS-stimulated human monocytes, TNFα TR-FRET
# [4] = IC50 HTRF, Cot HTRF (TR-FRET KinEASE) biochemical assay, 400 μM ATP
# [5] = read-out: EC50 TNF, LPS-stimulated human monocytes, TNFα TR-FRET
# [6] = read-out: IC50 HTRF, Cot HTRF (TR-FRET KinEASE) biochemical assay, 400 μM ATP
# Chain of Human Cot (P41279 30-397): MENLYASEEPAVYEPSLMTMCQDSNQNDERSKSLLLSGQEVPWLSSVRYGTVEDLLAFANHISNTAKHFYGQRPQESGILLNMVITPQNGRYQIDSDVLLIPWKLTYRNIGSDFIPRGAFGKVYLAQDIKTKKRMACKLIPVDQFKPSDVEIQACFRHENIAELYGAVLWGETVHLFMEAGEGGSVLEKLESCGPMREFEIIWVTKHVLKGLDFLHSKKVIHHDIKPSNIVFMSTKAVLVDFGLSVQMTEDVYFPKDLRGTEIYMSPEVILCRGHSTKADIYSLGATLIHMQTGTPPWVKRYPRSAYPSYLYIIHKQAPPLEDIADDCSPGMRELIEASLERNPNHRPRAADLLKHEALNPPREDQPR
SMILES,EC50 (TNFα; [1]) [nM],IC50 (Human Cot; [2]) [nM],other results
"CC(C)(C)CNc1c(C#N)cnc2c(Cl)cc(N[C@H](c3cn(C4CC4)nn3)c3cccc4[nH]ncc34)cc12 [Example 448, (S)-8-chloro-6-(((1-cyclopropyl-1H-1,2,3-triazol-4-yl)(1H-indazol-4-yl)methyl)-amino)-4-(neopentylamino)quinoline-3-carbonitrile]",44,2,
"CC(C)(C)N1CCC(n2cc([C@@H](Nc3cc(Cl)c4ncc(C#N)c(Nc5ccc(F)c(Cl)c5)c4c3)c3csc4ccc(Cl)cc34)nn2)CC1 [Example 349, (S)-6-(((1-(1-(tert-butyl)piperidin-4-yl)-1H-1,2,3-triazol-4-yl)(5-chlorobenzo[b]-thiophen-3-yl)methyl)amino)-8-chloro-4-((3-chloro-4-fluorophenyl)amino)quinoline-3-carbonitrile]",718,41,
"Cc1nc(F)ccc1[C@H](Nc1cc(Cl)c2ncc(C#N)c(NCC3C(C)(C)C3(C)C)c2c1)c1cn(C2(C(F)F)CC2)nn1 [Example 733, (S)-8-chloro-6-(((1-(1-(difluoromethyl)cyclopropyl)-1H-1,2,3-triazol-4-yl)(6-fluoro-2-methylpyridin-3-yl)methyl)amino)-4-(((2,2,3,3-tetramethylcyclopropyl)methyl)-amino)quinoline-3-carbonitrile]",835,42,
"CC(C)(C)CNc1c(C#N)cnc2c(Cl)cc(N[C@H](c3cn(C4(C(N)=O)CC4)nn3)c3cccc4ncsc34)cc12 [Example 416, (S)-1-(4-(benzo[d]thiazol-7-yl((8-chloro-3-cyano-4-(neopentylamino)quinolin-6-yl)amino)methyl)-1H-1,2,3-triazol-1-yl)cyclopropane-1-carboxamide]",124,2,
"Cc1nc(F)ccc1[C@H](Nc1cc(C#N)c2ncc(C#N)c(NCC(C)(C)C(F)(F)F)c2c1)c1nnn(C2(C)CC2)c1F [Example 863, (S)-6-(((5-fluoro-1-(1-methylcyclopropyl)-1H-1,2,3-triazol-4-yl)(6-fluoro-2-methylpyridin-3-yl)methyl)amino)-4-((3,3,3-trifluoro-2,2-dimethylpropyl)amino)-quinoline-3,8-dicarbonitrile]",,,EC50 (TNFα; [3]): 35 nM; IC50 (Human Cot; [4]): 2 nM
"[2H][C@](Nc1cc(Cl)c2ncc(C#N)c(Nc3c(F)ccc(Cl)c3F)c2c1)(c1ccc(F)nc1)c1cn(C2CC2)nn1 [Example 127, (S)-8-chloro-4-((3-chloro-2,6-difluorophenyl)amino)-6-(((1-cyclopropyl-1H-1,2,3-triazol-4-yl)(6-fluoropyridin-3-yl)methyl-d)amino)quinoline-3-carbonitrile]",194,16,
"CC(C)(C)CNc1c(C#N)cnc2c(Cl)cc(N[C@H](c3cn(C4(C(F)(F)F)CC4)nn3)c3ccc(Cl)c4ncccc34)cc12 [Example 709, (S)-8-chloro-6-(((8-chloroquinolin-5-yl)(1-(1-(trifluoromethyl)cyclopropyl)-1H-1,2,3-triazol-4-yl)methyl)amino)-4-(neopentylamino)quinoline-3-carbonitrile]",187,17,
"N#Cc1cnc2c(Cl)cc(N[C@@H](c3cncc(Cl)c3)c3c[nH]nn3)cc2c1Nc1cnc(F)c(F)c1 [Example 152, (S)-8-chloro-6-(((5-chloropyridin-3-yl)(1H-1,2,3-triazol-4-yl)methyl)amino)-4-((5,6-difluoropyridin-3-yl)amino)quinoline-3-carbonitrile]",904,10,
"CC(C)(C)N1CCC(n2cc([C@@H](Nc3cc(Cl)c4ncc(C#N)c(Nc5ccc(F)c(Cl)c5)c4c3)c3cccc4c3CNC4)nn2)CC1 [Example 59, (S)-6-(((1-(1-(tert-butyl)piperidin-4-yl)-1H-1,2,3-triazol-4-yl)(isoindolin-4-yl)methyl)amino)-8-chloro-4-((3-chloro-4-fluorophenyl)amino)quinoline-3-carbonitrile]",892,2,
"Cc1nc(F)ccc1[C@H](Nc1cc(C#N)c2ncc(C#N)c(NCC(C)(C)C)c2c1)c1cn(C2(CF)CC2)nn1 [Example 503, (S)-6-(((6-fluoro-2-methylpyridin-3-yl)(1-(1-(fluoromethyl)cyclopropyl)-1H-1,2,3-triazol-4-yl)methyl)amino)-4-(neopentylamino)quinoline-3,8-dicarbonitrile]",45,2,
Cc1ccc2c([C@H](Nc3cc(C#N)c4ncc(C#N)c(NCC(C)(C)C)c4c3)c3cn(C4(C)CC4)nn3)cccc2n1 [Example 902],,,EC50 (TNFα; [5]): 36 nM; IC50 (Human Cot; [6]): 3 nM
"Cc1nc(F)ccc1[C@H](Nc1cc(C#N)c2ncc(C#N)c(NCC(C)(C)C)c2c1)c1cn(C2CC23CC3)nn1 (stereo partly drawn) [Example 872, 6-(((1S)-(6-fluoro-2-methylpyridin-3-yl)(1-(spiro[2.2]pentan-1-yl)-1H-1,2,3-triazol-4-yl)methyl)amino)-4-(neopentylamino)quinoline-3,8-dicarbonitrile]",,,EC50 (TNFα; [3]): 15 nM; IC50 (Human Cot; [4]): 1 nM
Cc1nc(F)ccc1[C@H](Nc1cc(Cl)c2ncc(C#N)c(NCC(C)(C)C(F)(F)F)c2c1)c1nnn(C2(C3CC3)CC2)c1F [Example 957],,,EC50 (TNFα; [5]): 54 nM; IC50 (Human Cot; [6]): 5 nM
"CC(C)(C)CNc1c(C#N)cnc2c(C#N)cc(N[C@H](c3cn(C4(C(F)(F)F)CC4)nn3)c3cccc4c(=O)[nH]ccc34)cc12 [Example 700, (S)-4-(neopentylamino)-6-(((1-oxo-1,2-dihydroisoquinolin-5-yl)(4-(1-1-(trifluoromethyl)-cyclopropyl)-1H-1,2,3-triazol-4-yl)methyl)amino)quinoline-3,8-dicarbonitrile]",,,"EC50 (TNFα; read-out: EC50 TNF, LPS-stimulated human monocytes, TNFα): 179 nM; IC50 (Human Cot; read-out: IC50 HTRF, Cot HTRF (TR-FRET) biochemical assay): 2 nM"
"COc1ncccc1[C@H](Nc1cc(C#N)c2ncc(C#N)c(NCC(C)(C)C)c2c1)c1cn(C2(C(F)(F)F)CC2)nn1 [Example 885, (S)-6-(((2-methoxypyridin-3-yl)(1-(1-(trifluoromethyl)cyclopropyl)-1H-1,2,3-triazol-4-yl)methyl)amino)-4-(neopentylamino)quinoline-3,8-dicarbonitrile]",,,EC50 (TNFα; [3]): 132 nM; IC50 (Human Cot; [4]): 10 nM
"Cn1ccc2c([C@H](Nc3cc(C#N)c4ncc(C#N)c(NCC(C)(C)C(F)(F)F)c4c3)c3cn(C4(C)CC4)nn3)cccc2c1=O [Example 884, (S)-6-(((2-methyl-1-oxo-1,2-dihydroisoquinolin-5-yl)(1-(1-methylcyclopropyl)-1H-1,2,3-triazol-4-yl)methyl)amino)-4-((3,3,3-trifluoro-2,2-dimethylpropyl)amino)q uin oline-3,8-dicarbonitrile]",,,EC50 (TNFα; [3]): 19 nM; IC50 (Human Cot; [4]): 1 nM
"CC(C)(C)CNc1c(C#N)cnc2c(Cl)cc(N[C@H](c3cn(C4CC4)nn3)c3cncc4cnccc34)cc12 [Example 466, (S)-8-chloro-6-(((1-cyclopropyl-1H-1,2,3-triazol-4-yl)(2,7-naphthyridin-4-yl)methyl)amino)-4-(neopentylamino)-quinoline-3-carbonitrile]",926,28,
"COc1nccc2c([C@H](Nc3cc(C#N)c4ncc(C#N)c(NCC(C)(C)C)c4c3)c3cn(C4(C)CC4)nn3)cccc12 [Example 809, (S)-6-(((1-methoxylsoquinolin-5-yl)(1-(1-methylcyclopropyl)-1H-1,2,3-triazol-4-yl)methyl)amino)-4-(neopentylamino)quinoline-3,8-dicarbonitrile]",,,EC50 (TNFα; [5]): 32 nM; IC50 (Human Cot; [6]): 3 nM
